The source of these data is patent US20220370545A1, “INTEGRIN RECEPTOR ALPHA V BETA 3 AND ITS LIGAND INVOLVED IN CHRONIC ITCH” (North Carolina State University, priority 2019, published 2022).

The target of one assay is T1, TRPV1 receptor (Mus musculus, UniProt Q704Y3).
T1 construct: endogenous in cells; host or cells: primary mouse dorsal root ganglion neurons
Put plainly: Capsaicin-induced calcium response in DRG neurons (specificity control). To be noted: perfusion with 100 nM cilengitide. The class given is cell-based. The protocol: (§1) Before imaging, cells were incubated in 350 μL of complete media containing 1 μM Fura-2 AM (Enzo Life Sciences, Farmingdale, New York, United States of America) for 30 min at 37° C. with 5% CO2. During imaging, the cells were perfused with a buffer containing the following: 135 mM sodium chloride, 3.2 mM potassium chloride, 2.5 mM magnesium chloride, 2.8 mM calcium chloride, 667 μM monobasic sodium phosphate, 14.2 mM sodium bicarbonate, and 10.9 mM D-glucose (all from VWR International, Radnor, Pennsylvania, United States of America) with a pH between 7.00 and 7.40. The buffer and the holding plate were kept at 37° C. while imaging. Imaging data was collected on a TE200 inverted microscope using NIS Elements software (Nikon, Melville, New York, United States of America). Cells were exposed to 340 nm and 380 nm wavelengths for 100 ms and the A340/A380 ratio was calculated. Traces were analyzed using Excel and responses greater than 10% of the baseline were counted. Each data point in the scatter plots represented one coverslip.
Calcium Imaging: Calcium imaging will be performed on the DRG neurons as previously described (Pitake et al., 2018). Briefly, DRG neurons will be incubated for longer than 30 min in DMEM containing 1 μM of a fluorescent indicator Fura-2 AM (Enzo Life Sciences, Inc., Farmingdale, N.Y., United States of America). The neurons will be perfused in a standard bath solution containing 140 mM NaCl, 5 mM KCl, 2 mM MgCl2, 2 mM CaCl2, 10 mM Hepes and 10 mM D-glucose at pH 7.4 adjusted with NaOH. A calcium-free bath solution will be prepared by omitting 2 mM CaCl2 from the standard bath solution […] adding 5 mM EGTA. Fura-2 fluorescence excited at 340 and 380 nm and emission will be monitored at 510 nm with a digital CCD camera (Andor Clara DR-4152, Andor Technology Ltd, Belfast, United Kingdom). Data will be obtained by every 100 ms using an imaging software (NIS-Elements AR 4.13.04, Nikon Corporation, Tokyo, Japan) and analyzed by Microsoft Excel (Microsoft Corporation, Redmond, Wash., United States of America). Values of calcium responses will be normalized by dividing measured values (F) with average values of initial 5 frames (F0) of each cell and described as F/F0. In this study, changes in each response to an application with F/F0>0.1 will be regarded as positive. Cells not responding to 100 mM KCl, which is applied at the end of each experiment, will be regarded as non-neuronal cells and excluded from analysis.
Additional inhibitors were studied using the calcium imaging method described in Example 3. Briefly, the Fura2-AM calcium imaging method was performed on live dorsal root ganglia (DRG) neurons (ex vivo). The DRG neurons are pre-incubated with the inhibitors P11 (Catalog #4744, Tocris Bioscience, Bristol, United Kingdom) and LM609 (Catalog #MAB1876, Millipore Sigma, Burlington, Mass., United States of America) or vehicle for 10 minutes and further stimulated with periostin or capsaicin in the presence of inhibitors. For Echistatin (Catalog #3202/100U, R&D Biosystems, Minneapolis, Minn., United States of America), MK-0429, and SB273005 (Catalog #S75-40, Selleck Chemicals Llc, Houston, Tex., United States of America), the DRG neurons were perfused with a normal Locke buffer vehicle or modified Locke buffer as described below. The values were normalized with KCl ([…]) to identify neuronal responses in all the calcium response data below.

For a further assay, the target named is T2, TRPA1 (Mus musculus, UniProt Q8BLA8).
T2 construct: endogenous in cells; host or cells: primary mouse dorsal root ganglion neurons
Put plainly: AITC (mustard)-induced calcium response in DRG neurons (specificity control). The class given is cell-based. To be noted: perfusion with 100 nM cilengitide. Here is the method: as §1

Assay [1] concerns histamine-dependent itch in mice. Description: Histamine-induced itch in mice. To be noted: i.v. cilengitide 100 nM 10 minutes prior to histamine 100 μg/10 μl. The format is in vivo, mouse. Here is the method:
All behavioral experiments were conducted during the light cycle at ambient temperature (23° C.). Behavioral assessment of scratching behavior was conducted as described previously (Mishra et al., 2011). Briefly, mice were injected intradermal into the nape of the neck with periostin (R&D), histamine, and chloroquine (all Millipore-Sigma) as previously described (Shimada and LaMotte, 2008). Compounds were diluted in PBS and the same was used as a vehicle. […] Additionally, cilengitide and periostin were combined together (mix) and injected i.d. into the dorsal neck of mouse. Scratching behavior was recorded for 30 minutes and data was presented in bouts per 30 minutes for mice. […] For eye wipes assay, periostin and capsaicin were dropped on mouse cornea and counted wipes for 1-minute. […] For dog's study, periostin (25 μg/25 μl) was injected in the dorsal neck (s.c.) and behavior was recorded and quantified for 30 minutes as “duration of pruritus manifestation” (DPM), as described earlier (Paps et al., 2016). […] When different raters separately scored a single tape, the ratings indicated high interrater reliability (coefficient of correlation, r>0.95). This method of itch readout in NHP has been used and accepted (Ko and Naughton, 2000). The behavior was recorded for 30 minutes duration and number of scratches quantified. […]

T2 sequence (Q8BLA8 whole entry): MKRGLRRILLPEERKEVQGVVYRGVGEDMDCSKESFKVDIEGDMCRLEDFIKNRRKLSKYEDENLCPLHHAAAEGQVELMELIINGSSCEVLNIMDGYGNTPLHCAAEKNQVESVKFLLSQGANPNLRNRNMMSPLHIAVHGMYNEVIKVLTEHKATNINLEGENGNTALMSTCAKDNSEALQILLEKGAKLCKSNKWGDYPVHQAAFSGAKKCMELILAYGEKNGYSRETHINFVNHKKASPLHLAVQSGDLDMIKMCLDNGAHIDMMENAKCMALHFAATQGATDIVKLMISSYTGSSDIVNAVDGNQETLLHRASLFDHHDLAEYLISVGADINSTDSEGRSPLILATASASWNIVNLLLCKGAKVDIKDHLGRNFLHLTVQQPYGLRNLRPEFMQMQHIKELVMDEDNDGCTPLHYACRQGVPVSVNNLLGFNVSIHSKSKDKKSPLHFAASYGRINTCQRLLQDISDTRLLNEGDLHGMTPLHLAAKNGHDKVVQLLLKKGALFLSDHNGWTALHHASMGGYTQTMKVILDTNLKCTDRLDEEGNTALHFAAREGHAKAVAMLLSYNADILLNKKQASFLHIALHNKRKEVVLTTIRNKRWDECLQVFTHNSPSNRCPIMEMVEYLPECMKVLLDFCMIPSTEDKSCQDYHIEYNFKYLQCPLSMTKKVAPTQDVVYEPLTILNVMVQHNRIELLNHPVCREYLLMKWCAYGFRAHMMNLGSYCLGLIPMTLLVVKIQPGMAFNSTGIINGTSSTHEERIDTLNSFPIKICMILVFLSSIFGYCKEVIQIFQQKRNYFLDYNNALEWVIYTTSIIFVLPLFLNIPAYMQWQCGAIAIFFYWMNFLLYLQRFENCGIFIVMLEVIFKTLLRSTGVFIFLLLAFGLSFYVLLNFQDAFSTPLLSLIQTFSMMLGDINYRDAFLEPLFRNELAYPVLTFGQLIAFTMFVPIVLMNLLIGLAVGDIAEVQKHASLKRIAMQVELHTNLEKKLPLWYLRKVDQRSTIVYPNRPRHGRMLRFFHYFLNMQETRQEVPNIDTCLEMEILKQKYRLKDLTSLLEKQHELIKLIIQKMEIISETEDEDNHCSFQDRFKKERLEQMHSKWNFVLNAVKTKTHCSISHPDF
T1 sequence (Q704Y3 whole entry): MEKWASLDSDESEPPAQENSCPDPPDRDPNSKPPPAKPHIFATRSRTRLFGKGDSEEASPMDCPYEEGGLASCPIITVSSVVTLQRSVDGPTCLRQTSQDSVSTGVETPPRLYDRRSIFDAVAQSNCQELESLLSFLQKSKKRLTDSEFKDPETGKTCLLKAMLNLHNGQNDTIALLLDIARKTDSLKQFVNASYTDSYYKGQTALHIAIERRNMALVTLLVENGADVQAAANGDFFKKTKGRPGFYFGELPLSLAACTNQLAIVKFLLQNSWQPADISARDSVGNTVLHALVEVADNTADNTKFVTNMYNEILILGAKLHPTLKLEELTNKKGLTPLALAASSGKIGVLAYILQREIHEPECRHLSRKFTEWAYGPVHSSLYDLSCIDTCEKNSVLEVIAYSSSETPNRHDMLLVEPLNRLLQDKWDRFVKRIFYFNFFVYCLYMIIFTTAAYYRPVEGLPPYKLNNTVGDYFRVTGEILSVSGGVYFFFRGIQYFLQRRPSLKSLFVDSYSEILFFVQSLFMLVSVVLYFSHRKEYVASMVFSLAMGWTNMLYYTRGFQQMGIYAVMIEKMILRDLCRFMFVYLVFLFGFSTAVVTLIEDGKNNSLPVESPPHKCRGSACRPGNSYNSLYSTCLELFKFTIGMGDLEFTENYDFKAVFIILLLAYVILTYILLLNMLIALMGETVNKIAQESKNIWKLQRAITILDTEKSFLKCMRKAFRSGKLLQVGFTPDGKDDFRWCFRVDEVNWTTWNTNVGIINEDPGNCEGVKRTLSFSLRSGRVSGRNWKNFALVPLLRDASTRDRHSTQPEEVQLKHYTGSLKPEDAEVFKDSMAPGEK

For `CC(C)[C@H]1C(=O)N[C@@H](CCCN=C(N)N)C(=O)NCC(=O)N[C@@H](CC(=O)O)C(=O)N[C@H](Cc2ccccc2)C(=O)N1C` [cilengitide, cyclo RGDf-n(Me)V], the capsaicin-induced calcium response result on TRPV1 receptor is given as “did not reduce”. Moreover, on TRPA1, the AITC-induced calcium response entry is recorded as “did not reduce”. In addition, the “histamine-induced itch (scratching bouts per 30 minutes)” value in assay [1] is on record as “inhibits”.
